# Reference: PubChem BioAssay AID330 (DTP/NCI, 2004)
# Several values for one entry are separate records, joined by “and”; a condition that tells them apart may be missing. Equal entries are not always repeated. Inconclusive results and toxic doses are left out. Peptide text beside a SMILES is read from it. * marks the point of attachment. Cbz = O=C(OCc1ccccc1)*
# System: P388 leukemia ip, CD2F1 mice, survival T/C
# Assay: NCI In Vivo Anticancer Drug Screen. Data for tumor model P388 Leukemia (intraperitoneal) in CD2F1 (CDF1) mice
# Settings: endpoint: median survival time, higher = longer survival
# Procedure, shortened: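 Mice carrying the transplanted tumor received test compound or vehicle. Survival was recorded in each group, and the value is the treated-group measurement divided by that of the vehicle-treated control group.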
# [1] = dose: 50.0 mg/kg/injection, schedule: Q01DX005 (ip), vehicle: saline with Tween-80
# [2] = dose: 100.0 mg/kg/injection, schedule: Q01DX005 (ip), vehicle: saline with Tween-80
# [3] = dose: 200.0 mg/kg/injection, schedule: Q01DX005 (ip), vehicle: saline with Tween-80
# [4] = dose: 25.0 mg/kg/injection, schedule: Q01DX005 (ip), vehicle: saline with Tween-80
# [5] = dose: 50.0 mg/kg/injection, schedule: Q01DX005 (ip), vehicle: Klucel (hydroxypropylcellulose) (HPC)
# [6] = dose: 200.0 mg/kg/injection, schedule: Q01DX009 (ip), vehicle: saline
# [7] = dose: 60.0 mg/kg/injection, schedule: Q01DX005 (ip), vehicle: saline with Tween-80
# [8] = dose: 120.0 mg/kg/injection, schedule: Q01DX005 (ip), vehicle: saline with Tween-80
# [9] = dose: 50.0 mg/kg/injection, schedule: Q01DX009 (ip), vehicle: saline with Tween-80
# [10] = dose: 100.0 mg/kg/injection, schedule: Q01DX009 (ip), vehicle: saline with Tween-80
# [11] = dose: 200.0 mg/kg/injection, schedule: Q01DX009 (ip), vehicle: saline with Tween-80
smiles,measurement,setting,value
O=C1CC2CC3C1C2n1c(=O)n(-c2ccccc2)c(=O)n13 (stereo unspecified),T/C,"dose: 100.0 mg/kg/injection, schedule: Q01DX001 (ip), vehicle: Klucel (hydroxypropylcellulose) (HPC)",107 % of control
same,T/C,"dose: 200.0 mg/kg/injection, schedule: Q01DX001 (ip), vehicle: Klucel (hydroxypropylcellulose) (HPC)",101 % of control
same,T/C,"dose: 400.0 mg/kg/injection, schedule: Q01DX001 (ip), vehicle: Klucel (hydroxypropylcellulose) (HPC)",96 % of control
O=C(NC(Cc1ccc(O)cc1)C(=O)NC(Cc1ccccc1)C(=O)O)OCc1ccccc1 (stereo not drawn) (Cbz-Tyr-Phe-OH; configuration not given here),T/C,[1],102 % of control
same,T/C,[2],106 % of control
same,T/C,[3],104 % of control
CC1=C2C(=CC(C)(CO)C2O)C(O)C(C)(O)C12CC2 (stereo unspecified),T/C,"dose: 0.78 mg/kg/injection, schedule: Q01DX009 (ip), vehicle: water",100 % of control
same,T/C,"dose: 1.56 mg/kg/injection, schedule: Q01DX009 (ip), vehicle: water",114 % of control
same,T/C,"dose: 3.13 mg/kg/injection, schedule: Q01DX009 (ip), vehicle: water",105 % of control
same,T/C,"dose: 6.25 mg/kg/injection, schedule: Q01DX009 (ip), vehicle: water",112 % of control
same,T/C,"dose: 12.5 mg/kg/injection, schedule: Q01DX009 (ip), vehicle: water",118 % of control
Cc1cc2c(cc1C)C(=O)C(Br)=C(N)C2=O,T/C,[4],94 % of control
same,T/C,[1],100 % of control and 91 % of control
same,T/C,[2],87 % of control
same,T/C,[3],92 % of control
COC1=CCC2=C(CCN(C)C2Cc2ccc(OC)cc2)C1 (stereo unspecified),T/C,"dose: 12.5 mg/kg/injection, schedule: Q01DX005 (ip), vehicle: Klucel (hydroxypropylcellulose) (HPC)",97 % of control
same,T/C,"dose: 25.0 mg/kg/injection, schedule: Q01DX005 (ip), vehicle: Klucel (hydroxypropylcellulose) (HPC)",96 % of control
same,T/C,[5],100 % of control
CSC(=S)/C=C1\SC=CN1C,T/C,"dose: 25.0 mg/kg/injection, schedule: Q04DX002 (ip), vehicle: saline with Tween-80",96 % of control
same,T/C,"dose: 50.0 mg/kg/injection, schedule: Q04DX002 (ip), vehicle: saline with Tween-80",100 % of control
same,T/C,"dose: 100.0 mg/kg/injection, schedule: Q04DX002 (ip), vehicle: saline with Tween-80",100 % of control
CC(C)(C)OC(=O)NC(COCc1ccccc1)C(=O)O (stereo unspecified),T/C,[1],103 % of control
same,T/C,[2],98 % of control
same,T/C,[3],97 % of control
O=C1NC(=O)C2(N1)C(=O)c1cccc3cccc2c13 (stereo unspecified),T/C,"dose: 50.0 mg/kg/injection, schedule: Q01DX009 (ip), vehicle: distilled water + alcohol",100 % of control
same,T/C,"dose: 100.0 mg/kg/injection, schedule: Q01DX009 (ip), vehicle: distilled water + alcohol",102 % of control
same,T/C,"dose: 200.0 mg/kg/injection, schedule: Q01DX009 (ip), vehicle: distilled water + alcohol",95 % of control
CC1(C)C(=O)C(C)(C)C1O,T/C,"dose: 50.0 mg/kg/injection, schedule: Q01DX009 (ip), vehicle: saline",98 % of control
same,T/C,"dose: 100.0 mg/kg/injection, schedule: Q01DX009 (ip), vehicle: saline",95 % of control
same,T/C,[6],98 % of control
CCOC1CC2C(=O)C(CC)=C(OC)CC2(CC)CO1 (stereo unspecified),T/C,[7],98 % of control
same,T/C,[8],99 % of control
C=C1C(=O)C23C(OC(=O)/C=C/c4ccccc4)C1CCC2C12COC3(O)C(O)C1C(C)(C)CCC2O (stereo unspecified),T/C,"dose: 3.75 mg/kg/injection, schedule: Q01DX009 (ip), vehicle: saline with Tween-80",98 % of control
same,T/C,"dose: 7.5 mg/kg/injection, schedule: Q01DX009 (ip), vehicle: saline with Tween-80",95 % of control
same,T/C,"dose: 15.0 mg/kg/injection, schedule: Q01DX009 (ip), vehicle: saline with Tween-80",101 % of control
same,T/C,"dose: 30.0 mg/kg/injection, schedule: Q01DX009 (ip), vehicle: saline with Tween-80",98 % of control
CCCCCOCC(=O)OC,T/C,[9],98 % of control
same,T/C,[10],102 % of control
same,T/C,[11],103 % of control
NC(CSC(c1ccccc1)(c1ccccc1)c1ccccc1)C(=O)OC(c1ccccc1)c1ccccc1 (stereo unspecified),T/C,"dose: 400.0 mg/kg/injection, schedule: Q04DX003 (ip), vehicle: saline with Tween-80",150 % of control and 154 % of control
same,T/C,"dose: 600.0 mg/kg/injection, schedule: Q04DX003 (ip), vehicle: saline with Tween-80",109 % of control
CCC1(O)CC(OC2CC(N(C)C)C(OC3CC(O)C(OC4CC(O)C(O)C(C)O4)C(C)O3)C(C)O2)c2c(cc3c(c2O)C(=O)c2c(O)ccc(O)c2C3=O)C1C(=O)OC (stereo unspecified),T/C,"dose: 3.13 mg/kg/injection, schedule: Q04DX003 (ip), vehicle: Klucel (hydroxypropylcellulose) (HPC)",105 % of control
same,T/C,"dose: 6.25 mg/kg/injection, schedule: Q04DX003 (ip), vehicle: Klucel (hydroxypropylcellulose) (HPC)",99 % of control
same,T/C,"dose: 12.5 mg/kg/injection, schedule: Q04DX003 (ip), vehicle: Klucel (hydroxypropylcellulose) (HPC)",105 % of control
same,T/C,"dose: 25.0 mg/kg/injection, schedule: Q04DX003 (ip), vehicle: Klucel (hydroxypropylcellulose) (HPC)",118 % of control
N#CC12OC1(Cl)CCCC2(Cl)Cl (stereo unspecified),T/C,[9],95 % of control
same,T/C,[10],95 % of control
same,T/C,[11],86 % of control
CS(=O)(=O)OCCCCCCCCCOS(C)(=O)=O,T/C,"dose: 12.5 mg/kg/injection, schedule: Q01DX009 (ip), vehicle: saline sonified",109 % of control
same,T/C,"dose: 25.0 mg/kg/injection, schedule: Q01DX009 (ip), vehicle: saline sonified",122 % of control
same,T/C,"dose: 33.0 mg/kg/injection, schedule: Q04DX003 (ip), vehicle: saline with Tween-80",109 % of control
same,T/C,"dose: 50.0 mg/kg/injection, schedule: Q01DX009 (ip), vehicle: saline sonified",118 % of control
same,T/C,"dose: 50.0 mg/kg/injection, schedule: Q04DX003 (ip), vehicle: saline with Tween-80",122 % of control
same,T/C,"dose: 75.0 mg/kg/injection, schedule: Q04DX003 (ip), vehicle: saline with Tween-80",159 % of control
COC(=O)C1=CN(C)C(c2ccccc2)C=C1 (stereo unspecified),T/C,[1],103 % of control
same,T/C,[2],107 % of control
same,T/C,[3],112 % of control
CC1(C)C2CCC(CN)C1C2 (stereo unspecified),T/C,"dose: 12.5 mg/kg/injection, schedule: Q01DX009 (ip), vehicle: other",96 % of control
same,T/C,"dose: 25.0 mg/kg/injection, schedule: Q01DX009 (ip), vehicle: other",97 % of control
same,T/C,"dose: 50.0 mg/kg/injection, schedule: Q01DX009 (ip), vehicle: other",100 % of control
COc1ccc2c(c1)c(OC)c(CC(O)C(C)(C)O)c(=O)n2C (stereo unspecified),T/C,"dose: 110.0 mg/kg/injection, schedule: Q01DX001 (ip), vehicle: Klucel (hydroxypropylcellulose) (HPC)",96 % of control
same,T/C,"dose: 220.0 mg/kg/injection, schedule: Q01DX001 (ip), vehicle: Klucel (hydroxypropylcellulose) (HPC)",106 % of control
same,T/C,"dose: 440.0 mg/kg/injection, schedule: Q01DX001 (ip), vehicle: Klucel (hydroxypropylcellulose) (HPC)",110 % of control
Cc1cc(N(C)C)c2ccc(N(C)C)cc2n1,T/C,"dose: 12.5 mg/kg/injection, schedule: Q01DX005 (ip), vehicle: saline with Tween-80",97 % of control
same,T/C,[4],98 % of control
same,T/C,[1],99 % of control and 104 % of control
C/C(=C\C(=O)c1ccccc1)Nc1noc(-c2ccccc2)n1,T/C,[7],97 % of control
same,T/C,[8],94 % of control
same,T/C,"dose: 240.0 mg/kg/injection, schedule: Q01DX005 (ip), vehicle: saline with Tween-80",96 % of control
CCCCCCCCCCCCOC(=O)c1ccc(OP(=O)(O)OCc2ccccc2)cc1,T/C,"dose: 12.5 mg/kg/injection, schedule: Q01DX009 (ip), vehicle: Klucel (hydroxypropylcellulose) (HPC)",104 % of control
same,T/C,"dose: 25.0 mg/kg/injection, schedule: Q01DX009 (ip), vehicle: Klucel (hydroxypropylcellulose) (HPC)",121 % of control
same,T/C,"dose: 50.0 mg/kg/injection, schedule: Q01DX009 (ip), vehicle: Klucel (hydroxypropylcellulose) (HPC)",103 % of control and 115 % of control
CN(C)CC(Cl)CCl (stereo unspecified),T/C,"dose: 50.0 mg/kg/injection, schedule: Q04DX003 (ip), vehicle: saline",109 % of control
same,T/C,"dose: 100.0 mg/kg/injection, schedule: Q04DX003 (ip), vehicle: saline",109 % of control
same,T/C,[6],195 % of control
CN1CCC(CCl)C(c2ccccc2)C1 (stereo unspecified),T/C,"dose: 12.5 mg/kg/injection, schedule: Q01DX005 (ip), vehicle: saline",100 % of control
same,T/C,"dose: 25.0 mg/kg/injection, schedule: Q01DX005 (ip), vehicle: saline",100 % of control
same,T/C,"dose: 50.0 mg/kg/injection, schedule: Q01DX005 (ip), vehicle: saline",107 % of control
Fc1c(F)c(C(F)(F)F)c(F)c(F)c1-n1nnc(-c2ccccc2)n1,T/C,[5],99 % of control
same,T/C,"dose: 100.0 mg/kg/injection, schedule: Q01DX005 (ip), vehicle: Klucel (hydroxypropylcellulose) (HPC)",96 % of control
same,T/C,"dose: 200.0 mg/kg/injection, schedule: Q01DX005 (ip), vehicle: Klucel (hydroxypropylcellulose) (HPC)",100 % of control
